Holding throughout (assay): inhibition of tumour cell growth, NCI panel, 48 h
The test system of experiment [1] is HCT-116.
Experiment [2] deals with M14.
Experiment [3] has as its system EKVX.
Experiment [4] deals with TK-10.
For experiment [5], the system named is K562.
Experiment [6] deals with SNB-78.
The test system of experiment [7] is KM-20L2.
For experiment [8], the system named is HOP-92.
The test system of experiment [9] is NCI-H522.
Experiment [10] deals with ACHN.
The subject of experiment [11] is SK-OV-3.
Experiment [12] relates to NCI-H226.
Experiment [13] relates to SR.
In experiment [14] the test system is NCI/ADR-RES.
The subject of experiment [15] is RPMI-8226.
The subject of experiment [16] is OVCAR-3.
The subject of experiment [17] is A498.
The subject of experiment [18] is HOP-62.
Experiment [19] deals with MDA-N.
For experiment [20], the system named is MDA-MB-231.

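Exposure lasted 48 hours, with cells grown in 96-well plates and compounds tested at five concentrations. GI50 is the concentration that inhibits growth by half.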 Activity calls are given as the source filed them. Cut-off read from the data, not from the text of the source: active = GI50 up to about 1.1 µM and inactive = higher.

Regarding `CC(C)=CCC/C(C)=C/C=C/C(C)=C/C1C[C@@]2(C(O)O1)[C@H](CCCO)/C(=C(/C)C=O)CC[C@]2(C)O` (stereo not given in full), the GI50 in experiment [1] was 20.2 µM (inactive); in experiment [2], 13.5 µM (inactive); in experiment [3] it was 11.9 µM (inactive); in experiment [4] it was 25.5 µM (inactive); in [5], 8.89 µM (inactive); in experiment [6], 20.5 µM (inactive). Besides, the GI50 in [7] is 15.3 µM (inactive); in [8], < 0.01 µM (active); in experiment [9] it was 19.5 µM (inactive); in experiment [10], 11.6 µM (inactive); in [11], > 10 µM (inactive); in experiment [12] it was 22.4 µM (inactive). Further, the GI50 in [13] is 14.6 µM (inactive).

Regarding `CC1CC[P+](c2ccccc2)(c2ccccc2)c2c1ccc1ccccc21` (stereo not given), the GI50 is 1.96 µM (inactive) in experiment [1]; 3.53 µM (inactive) in experiment [2]; > 100 µM (inactive) in experiment [14]; 0.589 µM (active) in experiment [5]; 2.67 µM (inactive) in experiment [6]; 2.5 µM (inactive) in experiment [7]. Further, the values for the GI50 in [8], in experiment [9] and in [10] were 1.45 µM (inactive), 0.946 µM (active) and 9.62 µM (inactive), respectively.

As to `O=C1CCC23CC(C=CC=C12)n1c(=O)n(-c2ccccc2)c(=O)n13` (stereo not given), the GI50 in experiment [1] was > 71.9 µM (inactive); in experiment [15] it was > 100 µM (inactive); in experiment [16] it was > 100 µM (inactive); in experiment [3], > 100 µM (inactive); in experiment [17], > 100 µM (inactive); in experiment [14] it was 38.5 µM (inactive). Further, the GI50 was 39.8 µM (inactive) in experiment [5]; > 59.2 µM (inactive) in [6]; > 100 µM (inactive) in [8]; > 100 µM (inactive) in [9]; > 100 µM (inactive) in [18]; > 100 µM (inactive) in experiment [11]. The GI50 in experiment [12] is > 63.4 µM (inactive).

Turning to `Cc1ccc(NC(=O)OCC(COc2ccc(Cl)cc2)OC(=O)Nc2ccc(C)cc2)cc1` (stereo not given), the GI50 in [1] was 20.7 µM (inactive); in experiment [15], 9.77 µM (inactive); in [16], 14.6 µM (inactive); in [2], 17.1 µM (inactive); in [3], 70.3 µM (inactive); in experiment [17] it was 13.2 µM (inactive). Also, the GI50 in experiment [4] is 12.4 µM (inactive); in [5] it was 9.27 µM (inactive); in experiment [6], 23.2 µM (inactive); in [7], 36.7 µM (inactive); in experiment [8] it was 11.1 µM (inactive); in [9] it was 29.8 µM (inactive). Further, the GI50 is 26.6 µM (inactive) in experiment [18]; 20.7 µM (inactive) in experiment [10]; 58.6 µM (inactive) in experiment [11]; 16.5 µM (inactive) in experiment [12]; > 100 µM (inactive) in [13].

On to `CCCCCCCCCCCCCC(=O)OC1C(O)C(CO)OC(OC)C1NC(=O)N(CCCl)N=O` (stereo not given), for which the GI50 was 30.8 µM (inactive) in experiment [15]; > 100 µM (inactive) in experiment [16]; > 100 µM (inactive) in [2]; > 100 µM (inactive) in [4]; > 100 µM (inactive) in experiment [5]; > 100 µM (inactive) in experiment [7]. Also, the GI50 in experiment [9] is 72.9 µM (inactive); in experiment [18], 50.7 µM (inactive); in experiment [10] it was 41.4 µM (inactive); in experiment [12], > 100 µM (inactive); in experiment [13] it was 23.2 µM (inactive).

As for `Cc1cc2c(cc1C)[n+]([O-])c(C#N)c(Cl)[n+]2[O-]`, the GI50 is 14.1 µM (inactive) in [1]; 12.3 µM (inactive) in [15]; 7.78 µM (inactive) in experiment [16]; 6.59 µM (inactive) in [3]; 19.7 µM (inactive) in experiment [17]; 15.8 µM (inactive) in experiment [14]. Besides, the GI50 in [4] was 14.4 µM (inactive); in [5], 10.3 µM (inactive); in [19] it was 17.5 µM (inactive); in experiment [8], 16.2 µM (inactive); in experiment [9], 11 µM (inactive); in experiment [18], 19.6 µM (inactive). Further, the GI50 in experiment [10] is 10.5 µM (inactive); in experiment [11], 16.4 µM (inactive); in experiment [12], 21.7 µM (inactive); in experiment [20] it was 19.1 µM (inactive); in experiment [13], 3.82 µM (inactive).

In the case of `CCCCNC(=O)N/C=C1\C(=O)Oc2ccccc2C1=O`, the GI50 in experiment [1] is 43.9 µM (inactive); in [15], 55.7 µM (inactive); in experiment [2], 41.7 µM (inactive); in experiment [3], > 100 µM (inactive); in experiment [4] it was 79.4 µM (inactive); in experiment [6], 19.9 µM (inactive). In addition, the GI50 in experiment [7] was > 100 µM (inactive); in experiment [8], 24.9 µM (inactive); in experiment [18], 47.5 µM (inactive); in [10] it was 24.5 µM (inactive); in experiment [12] it was 32.7 µM (inactive); in experiment [13] it was 57.5 µM (inactive).

For the compound `c1cncc(O[Si](Oc2cccnc2)(Oc2cccnc2)Oc2cccnc2)c1`, the GI50 in experiment [16], in [2], in experiment [3], in experiment [4], in [6] and in experiment [11] was > 100 µM (inactive) throughout. For the same compound, the GI50 in [12] and in experiment [13] was > 100 µM (inactive) in each case.

With `C[C@@H]1CC[C@H]2[C@H]1[C@H]1[C@@H](CC[C@]2(C)N=C=S)C1(C)C`, the GI50 in experiment [1] was 17.9 µM (inactive); in [15], 17.2 µM (inactive); in experiment [16] it was 19.3 µM (inactive); in experiment [2], 18.5 µM (inactive); in experiment [14] it was 21.7 µM (inactive); in experiment [4], 41.3 µM (inactive). The GI50 in experiment [5] was 16.2 µM (inactive); in experiment [19], 1.96 µM (inactive); in experiment [8] it was 30.7 µM (inactive); in [18] it was 31.8 µM (inactive); in experiment [11], 49.3 µM (inactive); in experiment [12] it was 17.7 µM (inactive). In addition, the GI50 in experiment [20] was 30.1 µM (inactive); in [13], 22.1 µM (inactive).

With `N#Cc1ccc(C2Oc3ccc(Cl)cc3C=C2[N+](=O)[O-])cc1` (stereo not given), the GI50 in experiment [1] is 0.522 µM (active); in experiment [15] it was 0.334 µM (active); in experiment [16], 1.63 µM (inactive); in experiment [2], 1.36 µM (inactive); in [3], 1.75 µM (inactive); in [17], 2.38 µM (inactive). In addition, the GI50 was 1.85 µM (inactive) in [4]; 0.354 µM (active) in [5]; 1.53 µM (inactive) in experiment [19]; 1.39 µM (inactive) in experiment [8]; 1.34 µM (inactive) in [9]; 1.98 µM (inactive) in [18]. For the same compound, the GI50 in experiment [10] was 1.67 µM (inactive); in experiment [11], 2.27 µM (inactive); in experiment [12] it was 10.6 µM (inactive); in [20] it was 1.8 µM (inactive); in experiment [13] it was 0.157 µM (active).

With `CCOC(=O)N1C=NC23C(c4ccccc4)C(c4ccccc4)C12C(=O)N(C)C(=O)N3C` (stereo not given), the GI50 was > 100 µM (inactive) in experiment [1]; 44.2 µM (inactive) in experiment [15]; > 100 µM (inactive) in [16]; > 100 µM (inactive) in [2]; > 100 µM (inactive) in experiment [3]; > 100 µM (inactive) in [17]. The GI50 in [4], in [5], in [7], in experiment [8], in experiment [9] and in experiment [18] was > 100 µM (inactive) in each case. In addition, the GI50 in experiment [10], in experiment [11] and in [13] was > 100 µM (inactive) throughout.

As for `N#C[C@H](OC1OC(COC2OC(CO)C(O)C(O)C2O)C(O)C(O)C1O)c1ccccc1` (stereo not given in full), the GI50 is > 250 µM (inactive) in experiment [1]; > 250 µM (inactive) in [15]; > 250 µM (inactive) in [16]; > 250 µM (inactive) in experiment [3]; > 11.6 µM (inactive) in experiment [17]; > 250 µM (inactive) in experiment [14]. Moreover, the GI50 in experiment [5] is > 250 µM (inactive); in [6] it was 228 µM (inactive); in experiment [7] it was > 250 µM (inactive); in [8], 2.5 µM (inactive); in experiment [9], > 200 µM (inactive); in experiment [18], > 250 µM (inactive). Also, the GI50 in experiment [11] was > 250 µM (inactive); in [12], 191 µM (inactive).

Take `SC1=Nc2ccccc2-c2nc(-c3ccccc3)cc(-c3ccc(Br)cc3)c2C1`: the GI50 is 1.64 µM (inactive) in experiment [1]; 15.8 µM (inactive) in experiment [15]; 2.29 µM (inactive) in experiment [16]; 2.4 µM (inactive) in experiment [2]; 1.33 µM (inactive) in experiment [3]; 1.01 µM (active) in [17]. Besides, the GI50 in experiment [14] is 1.56 µM (inactive); in [5], 2.9 µM (inactive); in [19] it was 2.51 µM (inactive); in experiment [8] it was 1.95 µM (inactive); in [9] it was 1.68 µM (inactive); in experiment [18] it was 1.31 µM (inactive). Further, the GI50 in [11] is 0.897 µM (active); in experiment [12] it was 3.18 µM (inactive); in experiment [20], 1.44 µM (inactive).
